Assay results from patent US10358454B2, “Marinopyrrole derivatives and methods of making and using same” (H. LEE MOFFITT CANCER CENTER AND RESEARCH INSTITUTE, INC., priority 2014, dated 2019).
“Also recorded” adds a separate entry of the source. Like-named read-outs stand apart in the source and are kept apart here. Values belong to the compound of their own block, whether it stands above or below them.

Key:
Mcl-1/Bim = Mcl-1/Bim (Homo sapiens, UniProt Q07820); assay: Mcl-1/Bim ELISA (GST-Mcl-1 binding to biotinylated Bim BH3 peptide); conditions: for selectivity for Mcl-1 over Bcl-xL (Mcl-1/Bim over Bcl-xL/Bim): ratio of ELISA IC50 values; for selectivity profile Mcl-1 vs Bcl-xL in words: from Mcl-1/Bim and Bcl-xL/Bim ELISA
Method: (§1) ELISAs were performed using a modified version of a previously described procedure (Doi K et al. J. Biol. Chem. 2012, 287, 10224-10235). Briefly, 40 nM of biotinylated Bim BH3 peptide (Biomatik) in SuperBlock blocking buffer (Pierce) was incubated in high-binding capacity streptavidin-coated plates (Pierce) for 2 h. Compounds were diluted in 120 μl of PBS containing 10 nM of GST-Mcl-1 or GST-Bcl-xL in 1.5 mL tubes for 15 min. Wells were washed with wash buffer (PBS containing 0.05% Tween-20) and then 100 μL of the compound/GST-protein mixture was transferred to the wells. The plates were incubated for 2 h, and then the wells were washed with wash buffer. HRP-conjugated anti-GST antibody (Bethyl Laboratories) was diluted 1:2000 in SuperBlock and 100 μL was transferred to each well. The plate was incubated for 1 h, and then the wells were washed with wash buffer followed by PBS. 100 μL of SureBlue TMB Microwell Peroxidase Substrate (VWR) was added to each well and plates were developed for 5-10 min. 100 μL of 1 N HCl was added to each well to stop the reaction and absorbance was read at 450 nm using a μQuant plate reader (Bio-Tek).
(§2) ELISAs were performed using a similar procedure as previously described (Doi K, et al. J. Biol. Chem. 2012, 287, 10224-10235). Briefly, 40 nM of biotinylated Bim BH3 peptide (Biomatik) in SuperBlock blocking buffer (Pierce) was incubated in high-binding capacity streptavidin-coated plates (Pierce) for 2 h. Compounds were diluted in 120 μl of PBS containing 10 nM of GST-Mcl-1 or GST-Bcl-xL in 1.5 mL tubes for 15 min. Wells were washed with wash buffer (PBS containing 0.05% Tween-20) and then 100 μL of the compound/GST-protein mixture was transferred to the wells. The plates were incubated for 2 h, and then wells were washed with wash buffer. HRP-conjugated anti-GST antibody (Bethyl Laboratories) was diluted 1:2000 in SuperBlock and 100 μL was transferred to each well. The plate was incubated for 1 h, and then wells were washed with wash buffer followed by PBS. 100 μL of SureBlue TMB Microwell Peroxidase Substrate (VWR) was added to each well and plates were developed for 5-10 min. 100 μL of 1 N HCl was added to each well to stop the reaction and absorbance was read at 450 nm using μQuant plate reader (Bio-Tek).

Bcl-xL/Bim = Bcl-xL/Bim (Homo sapiens, UniProt Q07817); assay: Bcl-xL/Bim ELISA (GST-Bcl-xL binding to biotinylated Bim BH3 peptide)
Method: as §1, §2

[1] = tested on: human breast cancer MDA-MB-468 cells; assay: Western blotting of MDA-MB-468 cells treated with marinopyrrole derivatives (Mcl-1, Bim, caspase 3); type: cell-based; conditions: 10 μM for 16 h
Method: The cells were then processed for western blotting according to a previously described methods (Balasis M E et al. Clin. Cancer Res. 2011, 17, 2852-2862). […] However, none of the cyclic marinopyrroles were active in intact cells.
as §1

Solubility = conditions: aqueous solubility
Mcl-1 [2] = target: T1, Mcl-1 (Homo sapiens, UniProt Q07820); assay: Fluorescence-quenching (FQ) assay based on intrinsic Trp fluorescence of Mcl-1; type: binding; conditions: for Kd: binding isotherms, read-out: Kd (binding constant)
Source text: To investigate direct binding of compounds to Mcl-1, a fluorescence-quenching (FQ) assay based on the intrinsic Trp fluorescence of Mcl-1 was established.
Target sequence in this assay (Q07820 whole entry): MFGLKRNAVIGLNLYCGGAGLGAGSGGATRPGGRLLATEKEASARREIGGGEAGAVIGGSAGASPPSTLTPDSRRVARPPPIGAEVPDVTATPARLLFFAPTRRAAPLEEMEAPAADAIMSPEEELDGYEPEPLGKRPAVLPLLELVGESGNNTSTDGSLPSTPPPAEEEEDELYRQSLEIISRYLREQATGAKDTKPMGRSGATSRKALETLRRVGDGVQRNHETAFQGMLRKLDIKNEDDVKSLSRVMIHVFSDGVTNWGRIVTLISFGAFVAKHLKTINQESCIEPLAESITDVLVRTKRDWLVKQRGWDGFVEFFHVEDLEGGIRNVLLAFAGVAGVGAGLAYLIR

Mcl-1 [3] = target: T1, Mcl-1; assay: 15N-HSQC NMR chemical shift perturbation with docking; type: binding; design: MBP (cleaved yes); made in house; host or cells: E. coli BL21(DE3) Codon+; conditions: HSQC chemical shift changes
Method: ^15N-HSQC spectra were recorded on ^15N-labelled Mcl-1 at 0.1 mM prepared in 50 mM potassium phosphate solution at pH 6.5, 50 mM NaCl and 1 mM DTT. Titrations up to 100 μM of 1-21 and 1-18 compounds were performed. NMR spectra were acquired at 25° C. on an Inova 600 MHz spectrometer equipped with a cryoprobe and analyzed in CCPNMR (Vranken W F, et al. Proteins. 2005, 59, 687-696).
NMR-guided docking of 1-21 into the X-ray crystal structure of Mcl-1 (PDB ID: 3KJ0) was performed using Glide (Maestro, Schrodinger) (Friesner R A et al. J. Med. Chem. 2004, 47, 1739-1749; Friesner R A, et al. J. Med. Chem. 2006, 49, 6177-6196; Halgren T A, et al. J. Med. Chem. 2004, 47, 1750-1759; Gavathiotis E, et al. Nat. Chem. Biol. 2012, 8, 639-645). The lowest-energy docking pose is consistent with the observed NMR-chemical shift perturbation data. Pymol is used for preparing the highlighted poses.
Structural characterization of I-20 and II-4 was performed using NMR. HSQC spectra were collected at different ratios of compound:Mcl-1. […] The residues that undergo chemical shift changes upon compounds' binding onto the structure of Mcl-1 and the compounds' binding location were mapped (FIG. 6B). An induced fit molecular docking approach guided by the NMR chemical shifts was used to determine the structural models of the compounds bound to Mcl-1 using Glide software (Schrodinger; FIG. 6C). […]
Target sequence in this assay (Q07820 172-327): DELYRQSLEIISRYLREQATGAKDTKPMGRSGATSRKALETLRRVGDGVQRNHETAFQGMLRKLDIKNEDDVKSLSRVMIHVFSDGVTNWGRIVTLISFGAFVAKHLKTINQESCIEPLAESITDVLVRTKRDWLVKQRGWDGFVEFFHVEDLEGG

[4] = tested on: cultured human cancer cells; assay: Induction of apoptosis in cultured human cancer cells; type: cell-based; conditions: intact cell studies
[5] = Stability in 1 M NaOH at room temperature, HPLC analysis
[6] = pKa and log p calculated using ChemAxon Software Version 5.12.3; conditions: difference to phenol pKa […]
Method: Both pKa and log p values were calculated using ChemAxon Software Version 5.12.3 (Dixon S L and Jurs P C. J. Comp. Chem. 1993, 14, 1460-1467; Csizmadia F et al. J. Pharm. Sci. 1997, 86, 865-871).

[7] = Table 3-A structure I, Mcl-1 at 10 nM, n ≥ 3, read-out: Mcl-1-Bim IC50 (average ± SEM)
[8] = Table 3-A structure I, Bcl-xL at 10 nM, n ≥ 3, read-out: Bcl-xL-Bim IC50 (average ± SEM)
[9] = Table 2-A, n ≥ 3, read-out: Mcl-1/Bim IC50 (average ± SEM)
[10] = read-out: IC50 to inhibit the binding of Mcl-1 to Bim
[11] = Table 2-A, n ≥ 3, read-out: Bcl-xL/Bim IC50 (average ± SEM)
[12] = Table 2-B, n ≥ 3, read-out: Mcl-1/Bim IC50 (average ± SEM)
[13] = Table 2-B, n ≥ 3 unless specified, read-out: Bcl-xL/Bim IC50 (average ± SEM)
[14] = read-out: IC50 to inhibit Bcl-xL/Bim binding

Chain of Bcl-xL/Bim (Q07817 whole entry): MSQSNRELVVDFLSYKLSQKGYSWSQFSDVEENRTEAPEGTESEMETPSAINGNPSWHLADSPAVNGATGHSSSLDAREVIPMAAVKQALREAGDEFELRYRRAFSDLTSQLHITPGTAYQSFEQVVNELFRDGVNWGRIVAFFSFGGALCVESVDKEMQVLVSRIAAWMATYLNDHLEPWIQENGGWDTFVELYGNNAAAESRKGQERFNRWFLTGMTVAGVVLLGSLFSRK
Chain of Mcl-1/Bim (Q07820 whole entry): as the sequence (Q07820 whole entry) above

IC50 (Mcl-1/Bim; [7]): 61.4 ± 7.6 µM
IC50 (Bcl-xL/Bim; [8]): > 100 µM
solubility in words (Solubility): improvement in aqueous solubility
Structure (SMILES): O=C(O)c1ccc(C(=O)c2[nH]c(Cl)c(Cl)c2-n2c(C(=O)c3ccc(C(=O)O)cc3O)cc(Cl)c2Cl)c(O)c1 [Compound I-18, 4,4′-(4,4′,5,5′-Tetrachloro-1′H-[1,3′-bipyrrole]-2,2′-dicarbonyl)bis(3-hydroxybenzoic acid)]
activity against Mcl-1/Bim in words (Mcl-1/Bim; listed as 7a): lower activity than 1; also recorded: less active
activity against Bcl-xL/Bim in words (Bcl-xL/Bim; listed as 7a): little activity; also recorded: less active
effect on levels of Mcl-1 and Bim and cleavage of caspase 3 [1]: did not decrease Mcl-1 and Bim, and resulted in little caspase 3 cleavage

IC50 (Mcl-1/Bim; [7]): 10.9 ± 3.1 µM
activity against Bcl-xL/Bim in words (Bcl-xL/Bim): less active
IC50 (Bcl-xL/Bim; [8]): 27.3 ± 7.2 µM
direct binding to Mcl-1 by fluorescence quenching (Mcl-1 [2]): directly bind to Mcl-1
Kd (Mcl-1 [2]): 3.5 µM
solubility in words (Solubility): improvement in aqueous solubility
Structure (SMILES): O=C(c1ccc(P(=O)(O)O)cc1O)c1[nH]c(Cl)c(Cl)c1-n1c(C(=O)c2ccc(P(=O)(O)O)cc2O)cc(Cl)c1Cl [Compound I-20, ((4,4′,5,5′-Tetrachloro-1′H-[1,3′-bipyrrole]-2,2′-dicarbonyl)bis(3-hydroxy-4,1-phenylene))diphosphonic acid]
activity against Mcl-1/Bim in words (Mcl-1/Bim; listed as 8a): slightly less potent than 1; also recorded: less active
effect on levels of Mcl-1 and Bim and cleavage of caspase 3 [1]: little effect on Mcl-1, Bim or caspase 3
binding to Mcl-1 by NMR (Mcl-1 [3]): binding to the BH3 pocket of Mcl-1; also recorded: confirmed binding to Mcl-1

selectivity for Mcl-1 over Bcl-xL (Mcl-1/Bim over Bcl-xL/Bim) (Mcl-1/Bim): 4.2 fold
Structure (SMILES): COc1ccccc1C(=O)c1c(-n2c(C(=O)c3ccccc3OC)cc(Cl)c2Cl)c(Cl)c(Cl)n1C [VI-11]
induction of apoptosis [4]: induced apoptosis

IC50 (Mcl-1/Bim; [12]): > 100 µM
IC50 (Mcl-1/Bim; Table 3-E structure VI, n ≥ 3, read-out: Mcl-1-Bim IC50 (average ± SEM)): > 100 µM
IC50 (Mcl-1/Bim; [10]): > 100 µM
selectivity for Bcl-xL over Mcl-1 (Bcl-xL/Bim; ratio of ELISA IC50 values): 12.7 fold
IC50 (Bcl-xL/Bim; [14]): 7.1 µM
Structure (SMILES): Cn1c(Cl)c(Cl)c(-n2c(C(=O)c3ccccc3O)cc(Cl)c2Cl)c1C(=O)c1ccccc1O [VI-12]
induction of apoptosis [4]: induced apoptosis

More lines, now with the values behind:

Structure (SMILES): O=C(O)Cn1cc(-c2cc(O)c(C(=O)c3[nH]c(Cl)c(Cl)c3-n3c(C(=O)c4cc(Cl)c(-c5cn(CC(=O)O)nn5)cc4O)cc(Cl)c3Cl)cc2Cl)nn1 [Compound 1-19, 2,2′-(4,4′-((4,4′,5,5′-Tetrachloro-1′H-1,3′-bipyrrole-2,2′-dicarbonyl)bis(2-chloro-5-hydroxy-4,1-phenylene))bis(1H-1,2,3-triazole-4,1-diyl))diacetic acid]
IC50 (Mcl-1/Bim; [9]): 5.2 ± 0.8 µM
IC50 (Mcl-1/Bim; Table 3-B structure II, n ≥ 3, read-out: Mcl-1-Bim IC50 (average ± SEM)): 5.2 ± 0.8 µM
selectivity for Mcl-1 over Bcl-xL (Mcl-1/Bim over Bcl-xL/Bim) (Mcl-1/Bim): 9.6 fold
IC50 (Mcl-1/Bim; [10]): 5.2 µM
activity against Bcl-xL/Bim in words (Bcl-xL/Bim): not active
IC50 (Bcl-xL/Bim; [11]): > 50 µM
IC50 (Bcl-xL/Bim; Table 3-B structure II, n ≥ 3, read-out: Bcl-xL-Bim IC50 (average ± SEM)): > 50 µM
direct binding to Mcl-1 by fluorescence quenching (Mcl-1 [2]): directly bind to Mcl-1
Kd (Mcl-1 [2]): 2.5 µM
binding to Mcl-1 by NMR (Mcl-1 [3]; listed as II-4): binding to the BH3 pocket of Mcl-1; also recorded: confirmed binding to Mcl-1

Structure (SMILES): C=Cc1ccc(C(=O)c2[nH]c(Cl)c(Cl)c2-n2c(C(=O)c3ccc(C=C)cc3O)cc(Cl)c2Cl)c(O)c1 [Compound 1-4, (4,4′,5,5′-Tetrachloro-1′H-1,3′-bipyrrole-2,2′-diyl)bis((2-hydroxy-4-vinylphenyl)methanone)]
selectivity profile Mcl-1 vs Bcl-xL in words (Mcl-1/Bim): dual Mcl-1 and Bcl-XL antagonists
induction of apoptosis [4]: induced apoptosis

Structure (SMILES): CCc1ccc(C(=O)c2[nH]c(Cl)c(Cl)c2-n2c(C(=O)c3ccc(CC)cc3O)cc(Cl)c2Cl)c(O)c1 [Compound 1-5, (4,4′,5,5′-Tetrachloro-1′H-1,3′-bipyrrole-2,2′-diyl)bis((4-ethyl-2-hydroxyphenyl)methanone)]
IC50 (Mcl-1/Bim; [12]): 2.1 ± 0.5 µM
IC50 (Mcl-1/Bim; [7]): 2.1 ± 0.5 µM
selectivity profile Mcl-1 vs Bcl-xL in words (Mcl-1/Bim): dual Mcl-1 and Bcl-XL antagonists
IC50 (Mcl-1/Bim; [10]): 2.1 µM
IC50 (Bcl-xL/Bim; [13]): 3.9 ± 1.2 µM
IC50 (Bcl-xL/Bim; [8]): 3.9 ± 1.3 µM
induction of apoptosis [4]: induced apoptosis

Structure (SMILES): O=C(c1ccccc1O)c1[nH]c(Cl)c(Cl)c1-n1c(C(=O)c2ccccc2O)cc(Cl)c1Cl (racemic) [(±)-1, (±)-marinopyrrole A, reference compound]
IC50 (Mcl-1/Bim; Table 1, Mcl-1 at 10 nM, n ≥ 3, read-out: Mcl-1-Bim IC50 (average ± SEM)): 8.9 ± 1 µM
IC50 (Mcl-1/Bim; [9]): 8.9 ± 1 µM
IC50 (Mcl-1/Bim; [12]): 8.9 ± 1 µM
IC50 (Mcl-1/Bim; [7]): 8.9 ± 1 µM
selectivity for Mcl-1 over Bcl-xL (Mcl-1/Bim over Bcl-xL/Bim) (Mcl-1/Bim): 1.8 fold
selectivity for Mcl-1 over Bcl-xL (Mcl-1/Bim over Bcl-xL/Bim) (Mcl-1/Bim; listed as marinopyrrole A): two fold
IC50 (Mcl-1/Bim; [10]): 8.9 µM
IC50 (Bcl-xL/Bim; Table 1, Bcl-xL at 10 nM, n ≥ 3, read-out: Bcl-xL-Bim IC50 (average ± SEM)): 16.4 ± 3.3 µM
IC50 (Bcl-xL/Bim; [11]): 16.4 ± 3.3 µM
IC50 (Bcl-xL/Bim; [13]): 16.4 ± 3.3 µM
IC50 (Bcl-xL/Bim; [8]): 16.4 ± 3.3 µM
IC50 (Bcl-xL/Bim; [14]): 16.4 µM
effect on levels of Mcl-1 and Bim and cleavage of caspase 3 [1]: able to decrease Mcl-1 and Bim and to cleave caspas 3
solubility in words (Solubility): poor solubility
stability in words ([5]; 1 to 48 hours): highly stable
remained intact ([5]; after 48 hours): 76%
pKa values lower than that of phenol [6]: 1.6-2.2 log units
